{"source": "patent US20090142428A1", "about": "“Extracts from the Bark of Corynanthe Species and Use Thereof as Well as Medicaments, Dietetic Food Products and Pharmaceutical Preparations Containing Said Extracts” (DR. WILLMAR SCHWABE GMBH & CO. KG, priority 2005, published 2009)", "origin": "cited, not measured here", "system": "5-α-reductase", "conditions": "uptake of finasteride"}
{"smiles": "CC(C)(C)NC(=O)[C@H]1CC[C@H]2[C@@H]3CC[C@H]4NC(=O)C=C[C@]4(C)[C@H]3CC[C@]12C", "note": "[finasteride]", "values": [{"measurement": "reduction of the prostatic DHT concentration", "result": "up to 85%"}, {"measurement": "average reduction of the prostate size", "setting": "period of up to 12 months", "result": "about 20%"}]}
